Laboratory results: ChEMBL document CHEMBL5715954, “Silencing c-Myc translation as a therapeutic strategy through targeting PI3Kδ and CK1ε in hematological malignancies” (Blood, 2017)

Legend:
Set-up in all cases: scale not given: the % may be the effect or the level left
[1] = biological target: Protein-tyrosine kinase 6 (Homo sapiens) (UniProt Q13882); experiment: Inhibition of human BRK assessed as enzyme activity at 1 uM using poly[Glu:Tyr] (4:1) as substrate preincubated for 20 mins followed by [gamma-33P]-ATP addition and measured after 120 mins by radiometric Hot-SpotSM Kinase assay relative to control
Sequence of Protein-tyrosine kinase 6 (Homo sapiens) (Q13882 whole entry, looked up): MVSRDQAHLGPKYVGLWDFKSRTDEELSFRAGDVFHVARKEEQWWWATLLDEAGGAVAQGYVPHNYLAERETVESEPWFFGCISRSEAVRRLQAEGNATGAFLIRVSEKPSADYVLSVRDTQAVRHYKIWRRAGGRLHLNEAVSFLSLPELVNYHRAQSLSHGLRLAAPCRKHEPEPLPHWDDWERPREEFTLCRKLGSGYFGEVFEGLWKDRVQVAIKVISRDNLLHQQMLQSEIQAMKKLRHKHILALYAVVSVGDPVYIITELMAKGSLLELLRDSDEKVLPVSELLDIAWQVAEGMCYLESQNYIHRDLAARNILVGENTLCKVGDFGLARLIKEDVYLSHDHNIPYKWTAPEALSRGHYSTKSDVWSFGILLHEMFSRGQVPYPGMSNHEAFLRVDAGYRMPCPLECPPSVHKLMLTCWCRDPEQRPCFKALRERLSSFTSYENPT

[2] = biological target: Mitogen-activated protein kinase kinase kinase kinase 1 (Homo sapiens) (UniProt Q92918); experiment: Inhibition of human HPK1 assessed as enzyme activity at 1 uM using myelin basic protein as substrate preincubated for 20 mins followed by [gamma-33P]-ATP addition and measured after 120 mins by radiometric Hot-SpotSM Kinase assay relative to control
Sequence of Mitogen-activated protein kinase kinase kinase kinase 1 (Homo sapiens) (Q92918 whole entry, looked up): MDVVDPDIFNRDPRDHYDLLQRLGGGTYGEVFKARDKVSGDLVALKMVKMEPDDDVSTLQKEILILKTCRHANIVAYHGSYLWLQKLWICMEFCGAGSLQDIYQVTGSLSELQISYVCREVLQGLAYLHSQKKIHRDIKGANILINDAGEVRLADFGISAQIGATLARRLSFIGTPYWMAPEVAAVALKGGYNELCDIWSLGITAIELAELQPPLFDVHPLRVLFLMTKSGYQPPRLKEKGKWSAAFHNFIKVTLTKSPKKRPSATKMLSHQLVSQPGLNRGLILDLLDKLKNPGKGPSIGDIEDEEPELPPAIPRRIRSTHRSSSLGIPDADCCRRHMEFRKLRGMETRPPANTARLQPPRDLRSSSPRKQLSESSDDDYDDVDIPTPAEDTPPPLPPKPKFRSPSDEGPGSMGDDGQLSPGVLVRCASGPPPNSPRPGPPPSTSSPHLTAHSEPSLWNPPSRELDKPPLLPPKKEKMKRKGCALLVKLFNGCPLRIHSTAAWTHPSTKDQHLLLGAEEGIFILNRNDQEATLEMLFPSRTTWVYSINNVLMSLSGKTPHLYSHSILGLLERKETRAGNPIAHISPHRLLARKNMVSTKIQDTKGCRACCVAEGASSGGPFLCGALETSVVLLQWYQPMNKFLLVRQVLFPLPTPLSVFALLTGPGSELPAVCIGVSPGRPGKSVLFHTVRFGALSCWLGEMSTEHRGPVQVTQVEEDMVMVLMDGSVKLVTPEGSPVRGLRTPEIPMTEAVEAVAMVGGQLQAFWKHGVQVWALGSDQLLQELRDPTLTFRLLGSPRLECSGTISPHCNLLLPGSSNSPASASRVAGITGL

[3] = biological target: T1, Serine/threonine-protein kinase ICK (Homo sapiens) (UniProt Q9UPZ9); experiment: Inhibition of human LCK2 assessed as enzyme activity at 1 uM using myelin basic protein as substrate preincubated for 20 mins followed by [gamma-33P]-ATP addition and measured after 120 mins by radiometric Hot-SpotSM Kinase assay relative to control
T1 sequence (whole entry): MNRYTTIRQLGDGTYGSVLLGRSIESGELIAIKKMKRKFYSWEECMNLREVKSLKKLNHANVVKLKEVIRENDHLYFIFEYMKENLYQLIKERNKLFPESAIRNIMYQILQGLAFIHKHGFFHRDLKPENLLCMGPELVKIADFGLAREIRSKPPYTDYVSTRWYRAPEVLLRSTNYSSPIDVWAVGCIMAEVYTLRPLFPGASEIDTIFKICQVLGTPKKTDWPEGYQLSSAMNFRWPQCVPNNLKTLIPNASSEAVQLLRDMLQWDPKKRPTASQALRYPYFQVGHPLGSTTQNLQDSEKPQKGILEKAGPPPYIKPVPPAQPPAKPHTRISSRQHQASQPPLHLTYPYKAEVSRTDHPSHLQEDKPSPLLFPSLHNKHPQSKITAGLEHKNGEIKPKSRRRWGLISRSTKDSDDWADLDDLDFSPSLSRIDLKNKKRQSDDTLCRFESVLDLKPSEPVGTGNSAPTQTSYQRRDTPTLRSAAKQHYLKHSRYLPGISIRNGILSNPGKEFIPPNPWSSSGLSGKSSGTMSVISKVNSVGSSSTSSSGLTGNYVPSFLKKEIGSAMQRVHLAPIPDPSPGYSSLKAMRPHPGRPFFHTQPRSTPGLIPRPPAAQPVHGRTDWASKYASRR

[4] = biological target: T2, Serine/threonine-protein kinase MAK (Homo sapiens) (UniProt P20794); experiment: Inhibition of human MAK assessed as enzyme activity at 1 uM using myelin basic protein as substrate preincubated for 20 mins followed by [gamma-33P]-ATP addition and measured after 120 mins by radiometric Hot-SpotSM Kinase assay relative to control
T2 sequence (whole entry): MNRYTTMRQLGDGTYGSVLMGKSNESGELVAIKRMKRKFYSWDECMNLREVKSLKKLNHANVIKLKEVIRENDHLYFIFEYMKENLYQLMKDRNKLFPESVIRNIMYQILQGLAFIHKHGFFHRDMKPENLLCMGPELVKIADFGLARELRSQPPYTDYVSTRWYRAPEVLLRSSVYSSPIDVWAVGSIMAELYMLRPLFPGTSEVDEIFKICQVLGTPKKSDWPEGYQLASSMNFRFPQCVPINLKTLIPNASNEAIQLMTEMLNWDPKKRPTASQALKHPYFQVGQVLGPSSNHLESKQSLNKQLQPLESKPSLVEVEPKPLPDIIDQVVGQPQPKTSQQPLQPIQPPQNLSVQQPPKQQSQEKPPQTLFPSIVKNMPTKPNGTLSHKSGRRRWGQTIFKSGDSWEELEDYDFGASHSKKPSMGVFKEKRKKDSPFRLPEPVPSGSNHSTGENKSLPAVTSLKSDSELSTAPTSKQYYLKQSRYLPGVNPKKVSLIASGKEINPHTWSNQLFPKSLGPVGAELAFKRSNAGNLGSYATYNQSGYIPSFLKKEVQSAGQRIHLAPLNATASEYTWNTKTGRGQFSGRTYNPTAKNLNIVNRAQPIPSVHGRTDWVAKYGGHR

[5] = biological target: Serine/threonine-protein kinase OSR1 (Homo sapiens) (UniProt O95747); experiment: Inhibition of human OSR1 assessed as enzyme activity at 1 uM using RRHYYYDTHTNTYYLRTFGHNTRR as substrate preincubated for 20 mins followed by [gamma-33P]-ATP addition and measured after 120 mins by radiometric Hot-SpotSM Kinase assay relative to control
Sequence of Serine/threonine-protein kinase OSR1 (Homo sapiens) (O95747 2-527 limits assumed): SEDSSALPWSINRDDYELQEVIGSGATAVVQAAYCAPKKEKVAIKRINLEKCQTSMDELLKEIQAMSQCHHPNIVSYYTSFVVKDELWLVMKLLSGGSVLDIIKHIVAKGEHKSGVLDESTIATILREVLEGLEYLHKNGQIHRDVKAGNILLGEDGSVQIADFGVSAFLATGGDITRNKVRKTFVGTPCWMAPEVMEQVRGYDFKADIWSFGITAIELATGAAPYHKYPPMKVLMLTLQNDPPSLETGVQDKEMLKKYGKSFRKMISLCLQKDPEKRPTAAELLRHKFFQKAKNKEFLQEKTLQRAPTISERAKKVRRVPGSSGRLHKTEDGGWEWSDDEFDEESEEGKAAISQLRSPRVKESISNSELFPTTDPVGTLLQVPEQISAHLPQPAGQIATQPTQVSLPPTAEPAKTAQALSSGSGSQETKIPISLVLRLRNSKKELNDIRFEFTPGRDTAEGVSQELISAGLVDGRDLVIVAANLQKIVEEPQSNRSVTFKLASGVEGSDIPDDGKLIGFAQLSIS

[6] = biological target: T3, Serine/threonine-protein kinase D2 (Homo sapiens) (UniProt Q9BZL6); experiment: Inhibition of human PKD2 assessed as enzyme activity at 1 uM using KKLNRTLSVA as substrate preincubated for 20 mins followed by [gamma-33P]-ATP addition and measured after 120 mins by radiometric Hot-SpotSM Kinase assay relative to control
T3 sequence (whole entry): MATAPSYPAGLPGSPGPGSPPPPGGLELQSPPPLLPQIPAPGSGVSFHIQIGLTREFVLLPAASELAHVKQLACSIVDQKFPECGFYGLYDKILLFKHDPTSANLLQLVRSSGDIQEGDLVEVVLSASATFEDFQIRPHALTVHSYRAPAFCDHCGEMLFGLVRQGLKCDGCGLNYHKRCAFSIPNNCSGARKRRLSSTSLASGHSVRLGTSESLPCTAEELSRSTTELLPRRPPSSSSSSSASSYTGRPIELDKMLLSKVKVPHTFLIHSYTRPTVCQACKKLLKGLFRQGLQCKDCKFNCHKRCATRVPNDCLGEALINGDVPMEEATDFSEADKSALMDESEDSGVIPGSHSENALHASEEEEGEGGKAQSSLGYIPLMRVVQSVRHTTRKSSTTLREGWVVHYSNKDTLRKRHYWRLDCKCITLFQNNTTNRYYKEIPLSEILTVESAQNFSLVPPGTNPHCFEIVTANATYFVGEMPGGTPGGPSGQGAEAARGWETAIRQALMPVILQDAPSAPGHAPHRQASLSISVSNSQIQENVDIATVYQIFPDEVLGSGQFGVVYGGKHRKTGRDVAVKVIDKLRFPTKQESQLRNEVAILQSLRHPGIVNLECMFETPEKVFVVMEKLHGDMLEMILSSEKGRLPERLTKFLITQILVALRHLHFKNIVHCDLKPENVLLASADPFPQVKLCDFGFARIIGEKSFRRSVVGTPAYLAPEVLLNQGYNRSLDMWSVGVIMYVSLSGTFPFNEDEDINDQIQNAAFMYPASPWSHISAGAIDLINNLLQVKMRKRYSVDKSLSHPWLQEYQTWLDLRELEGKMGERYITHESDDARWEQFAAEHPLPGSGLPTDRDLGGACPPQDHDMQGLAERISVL

Row | SMILES | Activity [1] | Activity [2] | Activity [3] | Activity [4] | Activity [5] | Activity [6]
1 | C[C@H](Nc1ncnc2nc[nH]c12)c1cc2cccc(Cl)c2c(=O)n1-c1ccccc1 | 98.3% | 104% | 91.6% | 98.5% | 97.1% | 99.2%
2 | CC[C@H](Nc1ncnc2[nH]cnc12)c1nc2cccc(F)c2c(=O)n1-c1ccccc1 | 97.6% | 98% | 100% | 92.5% | 93.2% | 101%
3 | CC(C)Oc1ccc(-c2nn([C@@H](C)c3oc4ccc(F)cc4c(=O)c3-c3cccc(F)c3)c3ncnc(N)c23)cc1F [UMBRALISIB] | 97.9% | 105% | 101% | 96.5% | 95.5% | 101%
